Values of other authors, collected in patent publication US20040101555A1, “Method for stable and controlled delivery of (—)-hydroxycitric acid” (priority 2002, published 2004).

Experiments:
[1] = single large oral dose or two divided oral doses totaling one fourth of the single dose; high-sugar diet
[2] = over a three week period; higher dosage, alone

SMILES	reduction in food consumption [1] [%]	average weight loss [2] [pounds per week]
O=C(O)CC(O)(C(=O)O)C(O)C(=O)O (single isomer, unassigned; (-)) [HCA, (−)-Hydroxycitric acid]	≥ 10	
O=C([O-])CC(O)(C(=O)[O-])C(O)C(=O)[O-].[K+].[K+].[K+] (stereo not drawn) [potassium (−)-hydroxycitirate, potassium (−)-hydroxycitrate]		3
